Laboratory results taken from patent US4753953A, “Pyridonecarboxylic acid derivatives and antibacterial pharmaceutical compositions thereof” (priority 1985, dated 1988).
Values after ≈ are worked out from the molar mass of the structure shown. Like-named read-outs stand apart in the source and are kept apart here.

Legend:
Test in all cases: MIC, in vitro antibacterial activity (standard strains)
[1] = system: Staphylococcus aureus 209 P; type: cell-based; conditions: Staphylococcus aureus, 209P; 10^6 cells/ml; Gram +; read-out: MIC
S. aureus Smith = type: cell-based, Staphylococcus aureus; conditions: Staphylococcus aureus; 10^6 cells/ml; Gram +; read-out: MIC
[2] = system: Streptococcus pyogenes (S-8); type: cell-based; conditions: Streptococcus pyogenes; 10^6 cells/ml; Gram +; read-out: MIC
S. pyogenes IID 692 = type: cell-based, Streptococcus pyogenes; conditions: Streptococcus pyogenes, IID692; 10^6 cells/ml; Gram +; read-out: MIC
[3] = system: Escherichia coli NIHJ JC-2; type: cell-based; conditions: Escherichia coli, NIHJJC2; 10^6 cells/ml; Gram -; read-out: MIC
[4] = system: Klebsiella pneumoniae KY(GN)6445; type: cell-based; conditions: Klebsiella pneumoniae
[5] = system: Enterobacter cloacae IID 977; type: cell-based; conditions: Enterobacter cloacae, IID977; 10^6 cells/ml; Gram -; read-out: MIC
Shigella sonnei IID 969 = type: cell-based; conditions: Shigella sonnei, IID969; 10^6 cells/ml; Gram -; read-out: MIC
Method: Minimal inhibitory concentrations (MICs) were determined in accordance with the method recommended by Japan Society of Chemotherapy.

[6] = system: Salmonella enteritidis IID 604; type: cell-based; conditions: Salmonella enterica; 10^6 cells/ml; Gram -; read-out: MIC
P. cepacia GIFU 518 = type: cell-based; conditions: Burkholderia cepacia, GIFU518
P. maltophilia GIFU 2491 = type: cell-based; conditions: Stenotrophomonas maltophilia, GIFU2491
[7] = system: Acinetobacter anitratus IID 876; type: cell-based; conditions: Acinetobacter calcoaceticus, IID876; 10^6 cells/ml; Gram -; read-out: MIC
[8] = system: Alcaligenes faecalis 0114002; type: cell-based; conditions: Alcaligenes faecalis, 0114002; 10^6 cells/ml; Gram -; read-out: MIC
B. fragilis 25285 = type: cell-based, Bacteroides fragilis; conditions: Bacteroides fragilis, 25285; 10^6 cells/ml; Gram -; read-out: MIC
E. limosum KYA 8486 = type: cell-based; conditions: Eubacterium limosum, KYA8486; 10^6 cells/ml; Gram +; read-out: MIC
[9] = system: Veillonella parvula KYA 10790; type: cell-based; conditions: Veillonella parvula, KYA10790; 10^6 cells/ml; Gram -; read-out: MIC
[10] = system: Clostridium difficile I-E; type: cell-based; conditions: Clostridioides difficile; 10^6 cells/ml; Gram +
[11] = 10^6 cells/ml, Gram -, read-out: MIC

Compound | MIC [1] [µg/mL] | MIC (S. aureus Smith) [µg/mL] | MIC [2] [µg/mL] | MIC (S. pyogenes IID 692) [µg/mL] | MIC [3] [µg/mL] | MIC [4, 11] [µg/mL] | MIC [5] [µg/mL] | MIC (Shigella sonnei IID 969) [µg/mL] | MIC [6] [µg/mL] | MIC (P. cepacia GIFU 518) [µg/mL] | MIC (P. maltophilia GIFU 2491; [11]) [µg/mL] | MIC [7] [µg/mL] | MIC [8] [µg/mL] | MIC (B. fragilis 25285) [µg/mL] | MIC (E. limosum KYA 8486) [µg/mL] | MIC [9] [µg/mL] | MIC [10] [µg/mL] | MIC [4] [µg/mL] | MIC (P. maltophilia GIFU 2491) [µg/mL] | MIC (P. cepacia GIFU 518; [11]) [µg/mL]
CC1CN(c2c(F)cc3c(=O)c(C(=O)O)cn(C4CC4)c3c2Cl)CC1CN (stereo not shown) [Example 1, 7-(3-Aminomethyl-4-methyl-1-pyrrolidinyl)-8-chloro-1-cyclopropyl-6-fluoro-1,4-dihydro-4-oxo-3-quinolinecarboxylic acid] | 0.0125 (≈ 0.0317 µM) | 0.0125 (≈ 0.0317 µM) | 0.0125 (≈ 0.0317 µM) | 0.025 (≈ 0.0635 µM) | 0.025 (≈ 0.0635 µM) | 0.05 (≈ 0.127 µM) | 0.05 (≈ 0.127 µM) | 0.025 (≈ 0.0635 µM) | 0.05 (≈ 0.127 µM) | 0.39 (≈ 0.99 µM) | 0.1 (≈ 0.254 µM) | 0.05 (≈ 0.127 µM) | 0.2 (≈ 0.508 µM) | ≤ 0.05 | 0.39 (≈ 0.99 µM) | 0.1 (≈ 0.254 µM) | – | – | – | –
CCn1cc(C(=O)O)c(=O)c2cc(F)c(N3C[C@@H](N)[C@@H](C)C3)c(F)c21 (relative stereo) [Example 22, 7-(cis-3-Amino-4-methyl-1-pyrrolidinyl)-1-ethyl-6,8-difluoro-1,4-dihydro-4-oxo-3-quinolinecarboxylic acid] | 0.1 (≈ 0.285 µM) | 0.2 (≈ 0.569 µM) | 0.78 (≈ 2.22 µM) | 0.78 (≈ 2.22 µM) | 0.05 (≈ 0.142 µM) | 0.05 (≈ 0.142 µM) | 0.1 (≈ 0.285 µM) | 0.1 (≈ 0.285 µM) | 0.1 (≈ 0.285 µM) | 0.78 (≈ 2.22 µM) | 0.78 (≈ 2.22 µM) | 0.39 (≈ 1.11 µM) | 1.56 (≈ 4.44 µM) | 1.56 (≈ 4.44 µM) | 6.25 (≈ 17.8 µM) | 0.78 (≈ 2.22 µM) | 6.25 | – | – | –
C[C@@H]1CN(c2c(F)cc3c(=O)c(C(=O)O)cn(C4CC4)c3c2F)C[C@H]1N (relative stereo) [Example 18, 7-(trans-3-Amino-4-methyl-1-pyrrolidinyl)-1-cyclopropyl-6,8-difluoro-1,4-dihydro-4-oxo-3-quinolinecarboxylic acid] | 0.05 (≈ 0.138 µM) | 0.05 (≈ 0.138 µM) | 0.05 (≈ 0.138 µM) | 0.1 (≈ 0.275 µM) | 0.0063 (≈ 0.0173 µM) | – | 0.05 (≈ 0.138 µM) | 0.0125 (≈ 0.0344 µM) | 0.025 (≈ 0.0688 µM) | 0.1 (≈ 0.275 µM) | – | 0.025 (≈ 0.0688 µM) | 0.1 (≈ 0.275 µM) | 0.2 (≈ 0.55 µM) | – | 0.1 (≈ 0.275 µM) | 1.56 | 0.0125 (≈ 0.0344 µM) | 0.05 (≈ 0.138 µM) | –
C[C@H]1CN(c2cc3c(cc2F)c(=O)c(C(=O)O)cn3C2CC2)C[C@H]1N (relative stereo) [Example 33, 7-(cis-3-Amino-4-methyl-1-pyrrolidinyl)-1-cyclopropyl-6-fluoro-1,4-dihydro-4-oxo-3-quinolinecarboxylic acid] | 0.05 (≈ 0.145 µM) | 0.1 (≈ 0.29 µM) | 0.78 (≈ 2.26 µM) | 0.39 (≈ 1.13 µM) | 0.05 (≈ 0.145 µM) | 0.05 (≈ 0.145 µM) | 0.05 (≈ 0.145 µM) | 0.05 (≈ 0.145 µM) | 0.05 (≈ 0.145 µM) | – | 0.39 (≈ 1.13 µM) | 0.1 (≈ 0.29 µM) | 0.2 (≈ 0.579 µM) | 1.56 (≈ 4.52 µM) | 0.2 (≈ 0.579 µM) | 0.39 (≈ 1.13 µM) | 6.25 | – | – | –
C[C@H]1CN(c2c(F)cc3c(=O)c(C(=O)O)cn(C4CC4)c3c2Br)C[C@H]1N (relative stereo) [Example 21, 7-(cis-3-Amino-4-methyl-1-pyrrolidinyl)-8-bromo-1-cyclopropyl-6-fluoro-1,4-dihydro-4-oxo-3-quinolinecarboxylic acid] | 0.025 (≈ 0.0589 µM) | 0.025 (≈ 0.0589 µM) | 0.1 (≈ 0.236 µM) | 0.2 (≈ 0.471 µM) | 0.0063 (≈ 0.0148 µM) | 0.0125 (≈ 0.0295 µM) | 0.025 (≈ 0.0589 µM) | 0.0063 (≈ 0.0148 µM) | 0.025 (≈ 0.0589 µM) | – | 0.05 (≈ 0.118 µM) | 0.025 (≈ 0.0589 µM) | 0.2 (≈ 0.471 µM) | 0.05 (≈ 0.118 µM) | – | 0.1 (≈ 0.236 µM) | 0.39 | – | – | 0.39 (≈ 0.919 µM)
CC1CN(c2c(F)cc3c(=O)c(C(=O)O)cn(C4CC4)c3c2Cl)CC1N (stereo not shown) [Example 7, 7-(3-Amino-4-methyl-1-pyrrolidinyl)-8-chloro-1-cyclopropyl-6-fluoro-1,4-dihydro-4-oxo-3-quinolinecarboxylic acid] | 0.025 (≈ 0.0658 µM) | 0.05 (≈ 0.132 µM) | 0.1 (≈ 0.263 µM) | 0.1 (≈ 0.263 µM) | 0.0063 (≈ 0.0166 µM) | 0.0125 (≈ 0.0329 µM) | 0.05 (≈ 0.132 µM) | 0.0063 (≈ 0.0166 µM) | 0.025 (≈ 0.0658 µM) | 0.2 (≈ 0.527 µM) | 0.05 (≈ 0.132 µM) | 0.025 (≈ 0.0658 µM) | 0.1 (≈ 0.263 µM) | 0.05 (≈ 0.132 µM) | 0.2 (≈ 0.527 µM) | 0.1 (≈ 0.263 µM) | – | – | – | –
